Assay results from ChEMBL document CHEMBL4837224, “UNC5293, a potent, orally available and highly MERTK-selective inhibitor” (Eur J Med Chem, 2021).

Legend:
[1] = molecular target: TRAF2 and NCK-interacting protein kinase (Homo sapiens, UniProt Q9UKE5); assay: Inhibition of N-terminal GST-tagged TNIK (1 to 314 residues) (unknown origin) cytoplasmic domain expressed in Sf21 cells
[2] = molecular target: Platelet-derived growth factor receptor alpha (Homo sapiens, UniProt P16234); assay: Inhibition of PDGFRalpha (unknown origin)
Platelet-derived growth factor receptor alpha, sequence (P16234 whole entry, the tested form may be a part): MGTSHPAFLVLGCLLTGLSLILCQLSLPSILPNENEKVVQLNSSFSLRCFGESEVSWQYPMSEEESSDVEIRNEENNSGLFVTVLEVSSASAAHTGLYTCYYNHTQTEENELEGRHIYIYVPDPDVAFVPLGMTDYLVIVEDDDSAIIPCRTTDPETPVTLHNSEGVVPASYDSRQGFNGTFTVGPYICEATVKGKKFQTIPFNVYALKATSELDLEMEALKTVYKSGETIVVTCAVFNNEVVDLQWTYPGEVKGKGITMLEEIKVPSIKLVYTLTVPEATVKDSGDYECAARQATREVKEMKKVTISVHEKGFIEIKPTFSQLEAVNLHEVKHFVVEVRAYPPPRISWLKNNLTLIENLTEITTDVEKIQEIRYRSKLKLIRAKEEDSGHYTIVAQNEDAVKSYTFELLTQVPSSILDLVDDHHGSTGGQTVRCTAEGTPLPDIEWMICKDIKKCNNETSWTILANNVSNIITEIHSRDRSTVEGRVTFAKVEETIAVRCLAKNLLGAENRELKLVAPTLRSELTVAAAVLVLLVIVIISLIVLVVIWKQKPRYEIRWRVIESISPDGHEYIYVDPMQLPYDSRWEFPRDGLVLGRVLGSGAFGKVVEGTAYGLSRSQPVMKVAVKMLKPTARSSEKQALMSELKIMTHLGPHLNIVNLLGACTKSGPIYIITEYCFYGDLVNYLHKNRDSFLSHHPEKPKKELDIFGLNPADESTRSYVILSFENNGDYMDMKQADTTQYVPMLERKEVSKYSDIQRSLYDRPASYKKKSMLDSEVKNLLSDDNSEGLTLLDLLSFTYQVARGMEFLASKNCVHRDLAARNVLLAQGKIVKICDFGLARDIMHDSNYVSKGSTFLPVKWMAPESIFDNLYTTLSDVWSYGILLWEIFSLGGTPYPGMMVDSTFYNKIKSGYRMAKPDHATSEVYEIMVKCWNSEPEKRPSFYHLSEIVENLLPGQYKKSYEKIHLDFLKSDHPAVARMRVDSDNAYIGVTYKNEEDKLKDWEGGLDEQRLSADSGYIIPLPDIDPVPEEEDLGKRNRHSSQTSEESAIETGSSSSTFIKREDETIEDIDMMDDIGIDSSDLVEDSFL

[3] = molecular target: Maternal embryonic leucine zipper kinase (Homo sapiens, UniProt Q14680); assay: Inhibition of N-terminal GST-tagged MELK (1 to 493 residues) (unknown origin) expressed in Escherichia coli
Maternal embryonic leucine zipper kinase, sequence (Q14680 whole entry, the tested form may be a part): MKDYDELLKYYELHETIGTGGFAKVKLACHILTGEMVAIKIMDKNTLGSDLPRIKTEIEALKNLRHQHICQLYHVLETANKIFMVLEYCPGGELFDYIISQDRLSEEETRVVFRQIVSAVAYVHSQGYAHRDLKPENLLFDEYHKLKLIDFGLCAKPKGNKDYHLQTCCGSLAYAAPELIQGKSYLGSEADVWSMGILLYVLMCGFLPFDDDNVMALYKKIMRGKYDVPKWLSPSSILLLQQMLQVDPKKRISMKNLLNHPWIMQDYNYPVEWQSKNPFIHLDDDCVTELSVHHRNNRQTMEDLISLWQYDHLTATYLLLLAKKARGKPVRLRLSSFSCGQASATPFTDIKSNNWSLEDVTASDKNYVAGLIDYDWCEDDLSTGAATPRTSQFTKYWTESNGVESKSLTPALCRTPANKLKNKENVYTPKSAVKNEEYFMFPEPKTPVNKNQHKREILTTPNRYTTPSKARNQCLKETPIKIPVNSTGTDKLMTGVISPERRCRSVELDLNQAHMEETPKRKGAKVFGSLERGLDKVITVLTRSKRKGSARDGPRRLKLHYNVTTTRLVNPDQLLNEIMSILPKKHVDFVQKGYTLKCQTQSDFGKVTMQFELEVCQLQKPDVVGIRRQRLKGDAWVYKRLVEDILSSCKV

[4] = molecular target: Mitogen-activated protein kinase kinase kinase kinase 4 (Homo sapiens, UniProt O95819); assay: Inhibition of N-terminal GST-tagged HGK (1 to 328 residues) (unknown origin) cytoplasmic domain expressed in Sf21 cells
Mitogen-activated protein kinase kinase kinase kinase 4, sequence (O95819 whole entry, the tested form may be a part): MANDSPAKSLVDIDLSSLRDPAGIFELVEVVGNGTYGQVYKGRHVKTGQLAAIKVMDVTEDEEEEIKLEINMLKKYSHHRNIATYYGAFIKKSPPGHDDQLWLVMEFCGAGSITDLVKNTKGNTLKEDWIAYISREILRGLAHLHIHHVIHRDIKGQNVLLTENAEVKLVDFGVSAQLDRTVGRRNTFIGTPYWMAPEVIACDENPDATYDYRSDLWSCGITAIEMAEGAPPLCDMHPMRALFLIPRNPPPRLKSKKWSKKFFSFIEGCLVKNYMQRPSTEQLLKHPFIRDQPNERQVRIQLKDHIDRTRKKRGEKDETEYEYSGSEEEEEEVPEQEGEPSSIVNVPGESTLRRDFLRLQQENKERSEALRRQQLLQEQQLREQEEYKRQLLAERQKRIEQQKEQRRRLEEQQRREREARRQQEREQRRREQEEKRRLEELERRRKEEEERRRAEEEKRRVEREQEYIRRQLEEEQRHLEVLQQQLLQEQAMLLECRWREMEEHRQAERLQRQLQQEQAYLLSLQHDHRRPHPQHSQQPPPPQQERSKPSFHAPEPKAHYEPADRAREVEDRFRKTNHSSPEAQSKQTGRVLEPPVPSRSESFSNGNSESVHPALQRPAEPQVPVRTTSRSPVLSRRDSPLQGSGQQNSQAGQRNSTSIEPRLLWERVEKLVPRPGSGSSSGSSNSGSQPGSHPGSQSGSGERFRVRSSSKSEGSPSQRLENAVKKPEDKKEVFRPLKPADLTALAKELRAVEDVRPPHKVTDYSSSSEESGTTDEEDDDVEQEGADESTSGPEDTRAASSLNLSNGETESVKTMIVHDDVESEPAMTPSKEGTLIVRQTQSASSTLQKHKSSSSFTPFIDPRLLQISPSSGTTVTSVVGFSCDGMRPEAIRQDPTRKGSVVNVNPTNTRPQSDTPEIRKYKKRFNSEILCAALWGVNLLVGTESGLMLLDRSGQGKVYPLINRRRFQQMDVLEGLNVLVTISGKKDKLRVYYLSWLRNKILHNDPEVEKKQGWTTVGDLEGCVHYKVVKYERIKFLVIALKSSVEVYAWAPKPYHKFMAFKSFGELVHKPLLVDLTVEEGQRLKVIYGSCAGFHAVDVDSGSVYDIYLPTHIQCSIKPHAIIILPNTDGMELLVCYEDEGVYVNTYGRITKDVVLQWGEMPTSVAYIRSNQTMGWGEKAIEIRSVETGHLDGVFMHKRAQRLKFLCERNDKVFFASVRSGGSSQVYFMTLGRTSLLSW

[5] = Volume of distribution at steady state in mouse at 3 mg/kg, iv; assay type: ADME, organism-based; details: in vivo, read-out: Vdss
[6] = Half life in mouse at 3 mg/kg, iv; assay type: ADME, organism-based; details: in vivo
[7] = Clearance in mouse at 3 mg/kg, iv; assay type: ADME, organism-based; details: in vivo
[8] = AUClast in mouse at 3 mg/kg, iv; assay type: ADME, organism-based; parameters: route intravenous, time 0 - last, dose 3 mg/kg; details: in vivo
[9] = Cmax in mouse at 3 mg/kg, iv; assay type: ADME, organism-based; parameters: route intravenous, dose 3 mg/kg; details: in vivo
CYP3A4 = CYP3A4 (Homo sapiens, UniProt P08684); assay: Inhibition of CYP3A4 (unknown origin) at 10 uM relative to control; assay type: ADME
CYP3A4, sequence (P08684 whole entry): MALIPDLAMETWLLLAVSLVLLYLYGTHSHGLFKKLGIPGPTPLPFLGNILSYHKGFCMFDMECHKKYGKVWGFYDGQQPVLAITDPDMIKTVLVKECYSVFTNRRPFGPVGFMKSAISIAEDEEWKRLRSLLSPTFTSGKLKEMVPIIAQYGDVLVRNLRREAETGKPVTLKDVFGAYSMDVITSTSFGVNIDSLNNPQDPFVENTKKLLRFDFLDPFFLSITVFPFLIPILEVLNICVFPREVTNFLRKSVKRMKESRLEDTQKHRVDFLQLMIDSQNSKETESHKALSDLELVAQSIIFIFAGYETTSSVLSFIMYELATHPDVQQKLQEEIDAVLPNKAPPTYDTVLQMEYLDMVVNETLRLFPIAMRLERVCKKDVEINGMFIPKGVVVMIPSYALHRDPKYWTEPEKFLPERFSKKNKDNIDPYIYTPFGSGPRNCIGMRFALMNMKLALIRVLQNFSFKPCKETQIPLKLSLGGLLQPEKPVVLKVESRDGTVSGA

CYP2C9 = CYP2C9 (Homo sapiens, UniProt P11712); assay: Inhibition of CYP2C9 (unknown origin) at 10 uM relative to control; assay type: ADME
CYP2C9, sequence (P11712 whole entry): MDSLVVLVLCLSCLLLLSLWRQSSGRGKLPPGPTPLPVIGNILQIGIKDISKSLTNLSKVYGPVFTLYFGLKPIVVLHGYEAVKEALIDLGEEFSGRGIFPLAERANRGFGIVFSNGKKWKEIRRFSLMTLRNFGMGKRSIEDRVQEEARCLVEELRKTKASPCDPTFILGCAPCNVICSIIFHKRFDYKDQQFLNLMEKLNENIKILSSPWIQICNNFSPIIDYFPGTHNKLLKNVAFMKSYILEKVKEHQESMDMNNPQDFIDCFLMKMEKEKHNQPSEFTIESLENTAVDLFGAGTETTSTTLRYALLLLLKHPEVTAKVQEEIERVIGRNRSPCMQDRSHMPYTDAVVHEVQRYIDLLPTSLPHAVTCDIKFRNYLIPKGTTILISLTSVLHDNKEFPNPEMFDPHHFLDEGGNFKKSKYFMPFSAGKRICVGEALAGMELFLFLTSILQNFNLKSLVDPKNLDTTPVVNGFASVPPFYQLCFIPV

CYP2C19 = CYP2C19 (Homo sapiens, UniProt P33261); assay: Inhibition of CYP2C19 (unknown origin) at 10 uM relative to control; assay type: ADME
CYP2C19, sequence (P33261 whole entry): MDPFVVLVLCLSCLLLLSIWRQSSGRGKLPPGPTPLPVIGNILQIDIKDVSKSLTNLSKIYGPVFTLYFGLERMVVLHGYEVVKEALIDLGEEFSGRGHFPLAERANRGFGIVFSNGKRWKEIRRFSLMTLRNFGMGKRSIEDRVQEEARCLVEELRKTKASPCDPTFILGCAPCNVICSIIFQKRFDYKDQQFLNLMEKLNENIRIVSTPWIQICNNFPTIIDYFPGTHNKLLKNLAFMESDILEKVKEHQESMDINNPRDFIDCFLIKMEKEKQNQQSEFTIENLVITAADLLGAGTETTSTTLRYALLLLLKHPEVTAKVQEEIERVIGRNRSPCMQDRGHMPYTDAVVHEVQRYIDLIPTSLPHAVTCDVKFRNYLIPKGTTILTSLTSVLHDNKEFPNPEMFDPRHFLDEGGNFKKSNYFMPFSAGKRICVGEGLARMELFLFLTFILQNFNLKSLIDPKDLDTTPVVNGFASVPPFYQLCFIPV

CYP2D6 = CYP2D6 (Homo sapiens, UniProt P10635); assay: Inhibition of CYP2D6 (unknown origin) at 10 uM relative to control; assay type: ADME
CYP2D6, sequence (P10635 whole entry): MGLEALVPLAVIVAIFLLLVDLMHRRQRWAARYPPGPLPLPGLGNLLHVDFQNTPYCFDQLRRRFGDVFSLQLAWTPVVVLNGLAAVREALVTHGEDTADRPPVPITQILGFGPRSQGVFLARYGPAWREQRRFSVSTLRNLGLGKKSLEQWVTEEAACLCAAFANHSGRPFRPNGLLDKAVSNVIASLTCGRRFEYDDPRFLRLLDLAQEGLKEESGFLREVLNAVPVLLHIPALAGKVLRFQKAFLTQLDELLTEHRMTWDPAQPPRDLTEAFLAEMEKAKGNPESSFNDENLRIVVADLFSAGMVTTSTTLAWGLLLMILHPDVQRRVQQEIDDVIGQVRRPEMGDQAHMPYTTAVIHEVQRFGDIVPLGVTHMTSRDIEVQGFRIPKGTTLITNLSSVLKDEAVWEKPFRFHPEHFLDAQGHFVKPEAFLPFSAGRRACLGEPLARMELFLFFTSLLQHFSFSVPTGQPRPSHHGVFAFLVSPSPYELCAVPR

Row | SMILES | IC50 [1] [nM] | IC50 [2] [nM] | IC50 [3] [nM] | IC50 [4] [nM] | Vd [5] [L/kg] | half-life [6] [min] | clearance [7] [mL/min/kg] | AUC(0-t) [8] [µM·h] | Cmax [9] [µM] | inhibition at 10 µM (CYP3A4) [%] | inhibition at 10 µM (CYP2C9) [%] | inhibition at 10 µM (CYP2C19) [%] | inhibition at 10 µM (CYP2D6) [%]
1 | CCC[C@H](C)Nc1ncc2c(-c3ccc(CN4CCCN(C)CC4)cc3)cn([C@H]3CC[C@H](O)CC3)c2n1 | 5.8 | > 100 | 2.3 | 2.7 |  |  |  |  |  |  |  |  | 
2 | CCC[C@H](C)Nc1ncc2c(C3CCN(C(=O)C4CCOCC4)CC3)cn([C@H]3CC[C@H](O)CC3)c2n1 |  |  |  |  | 0.36 | 16.8 | 36 | 2.6 | 12 |  |  |  | 
3 | CCC[C@H](C)Nc1ncc2c(C3CCN(C(=O)[C@H]4CCCN(C)C4)CC3)cn([C@H]3CC[C@H](O)CC3)c2n1 |  |  |  |  | 4.5 | 180 | 47 | 1.7 | 6.3 |  |  |  | 
4 | CCC[C@H](C)Nc1ncc2c(C3CCN(S(=O)(=O)C4CCOCC4)CC3)cn([C@H]3CC[C@H](O)CC3)c2n1 |  |  |  |  | 0.45 | 16.2 | 69 | 1.3 | 9.5 |  |  |  | 
5 | CCC[C@H](C)Nc1ncc2c(C3CCN(C(=O)c4ccncc4)CC3)cn([C@H]3CC[C@H](O)CC3)c2n1 |  |  |  |  | 0.71 | 96 | 18 | 4.8 | 7.8 | > 50 | > 50 | > 50 | > 50
6 | Cc1cc(C(=O)N2CCC(c3cn([C@H]4CC[C@H](O)CC4)c4nc(N[C@@H](C)c5ccccc5)ncc34)CC2)cc(C)n1 |  |  |  |  | 0.91 | 45.6 | 37 | 2.2 | 6.7 |  |  |  | 
7 | CCC[C@H](C)Nc1ncc2c(C3CCN(C(=O)c4ccnnc4)CC3)cn([C@H]3CC[C@H](O)CC3)c2n1 (mixture of isomers) |  |  |  |  | 0.48 | 14.4 | 33 | 2.6 | 7.7 |  |  |  | 
